Calls of active or inactive are those of the source. The calls are words filed in the database; no cut-off is given here.
Columns and labels:
[1] = Cytotoxicity against human SUP-T1 cells assessed as reduction in cell viability measured after 16 hrs by MTT assay; format: cell-based
[2] = tested on: Human immunodeficiency virus 1; experiment: Antiviral activity against HIV1 931N101 infected in human SupT1 cells assessed as inhibition of viral entry mesaured after 96 hrs by p24- ELISA assay; format: functional, organism-based; conditions: Human immunodeficiency virus 1, 931N101, SUP-T1, 96 h
SUP-T1 = experiment: Inhibition of HIV1 gp120 interaction with CD4 in human SUP-T1 cells expressing CCR5, CXCR4 assessed as decrease in viral entry by fluorescent microscopic assay; format: cell-based; conditions: Human immunodeficiency virus 1
[3] = tested on: Human immunodeficiency virus 1; experiment: Antiviral activity against HIV1 931N101 infected in human SupT1 cells assessed as inhibition of viral entry at 2.2 uM mesaured after 96 hrs by p24- ELISA assay relative to control; format: functional; conditions: Human immunodeficiency virus 1, 931N101, SUP-T1

Compound | CC50 at 16 h [1] [µM] | IC50 [2] [µM] | inhibition (SUP-T1) | inhibition at 2.2 µM [3] [%]
CCOC(=O)C1=C(C)NC(=O)NC1c1cc(Br)ccc1O (configuration not stated) | 138 | 5.3 |  | 
CCOC(=O)C1=C(C)NC(=O)NC1c1ccc(O)c(OC)c1 (configuration not stated) | 141 | 8.5 | Active | 
CCOC(=O)C1=C(C)NC(=S)NC1c1ccc(Br)cc1 (configuration not stated) | 136 | 4.2 |  | 
CCOC(=O)C1=C(C)NC(=S)NC1c1ccccc1C (configuration not stated) | 124 | 5.2 |  | 
CCOC(=O)C1=C(C)NC(=S)NC1c1ccc(O)c(OC)c1 (configuration not stated) | 101 | 2.2 | Active | 50
CCOC(=O)C1=C(C)NC(=S)NC1c1cc(Br)ccc1O (configuration not stated) | 83.4 | 3.7 |  | 
CCOC(=O)C1=C(C)NC(=O)NC1c1ccc(O)cc1 (configuration not stated) | 132 | 6 |  | 
CCOC(=O)C1=C(C)NC(=S)NC1c1ccc(O)cc1 (configuration not stated) | 88.9 | 4 |  | 
CCOC(=O)C1=C(C)NC(=O)NC1c1ccccc1C (configuration not stated) | 136 | 9.5 |  | 
CCOC(=O)C1=C(C)NC(=S)NC1c1cccc(Cl)c1 (configuration not stated) | 97.6 | 3.5 |  | 
CCOC(=O)C1=C(C)NC(=O)NC1c1ccc(OC)cc1 (configuration not stated) | 103 | 6.2 |  | 
CCOC(=O)C1=C(C)NC(=S)NC1c1ccc(OC)cc1 (configuration not stated) | 110 | 4.5 |  | 
